Experimental data as given in US20060193796A1, “Method for refining ultraviolet absorbent, ultraviolet absorbent and cosmetic material” (priority 2003, published 2006).

Legend:
[1] = Hue evaluation for ultraviolet absorbers, Hazen color (APHA), Lovibond Nessleriser 2150; type: physicochemical
Description: Hue Evaluation for Ultraviolet Absorbers
Hazen color (APHA) was measured using Lovibond Nessleriser 2150.

[2] = Odor evaluation for ultraviolet absorbers after a time has elapsed (storage for 3 weeks); type: physicochemical; settings: 10 ranks: 1, no odor, 10, very intense odor; for Odor evaluation for ultraviolet absorber after a time has elapsed: In the dark: stored in the dark at 50° C. for 3 weeks; for Odor evaluation for ultraviolet absorber after a time has elapsed: In the light: stored in the light at 20° C., 1000 lux for 3 weeks
Description: Odor Evaluation for Ultraviolet Absorbers After a Time Has Elapsed 100 ml of each ultraviolet absorber was filled into two different 200-ml sample bottles, and one bottle was stored in the dark (at 50° C.) and the other in the light (at 20° C., 1000 lux) for 3 weeks. The intensity of overall odor and that of irritating odor were evaluated using one of 10 ranks: 1, no odor; . . .; 10, very intense odor and scored.

| SMILES | Evaluation for ultraviolet absorber: Hue [1] [APHA] | Odor evaluation for ultraviolet absorber after a time has elapsed: In the dark [2] | Odor evaluation for ultraviolet absorber after a time has elapsed: In the light [2] |
| --- | --- | --- | --- |
| CCCCC(CC)COC(=O)C=Cc1ccc(OC)cc1 (stereo not drawn) [Example 1, 2-ethylhexyl p-methoxycinnamate] | 10 | 2 | 1 |
| CCCCC(CC)COC(=O)C=Cc1ccc(OC)cc1 (stereo not drawn) [Example 2, 2-ethylhexyl p-methoxycinnamate] | 10 | 2 | 1 |
| CCCCC(CC)COC(=O)C=Cc1ccc(OC)cc1 (stereo not drawn) [Example 3, 2-ethylhexyl p-methoxycinnamate] | 10 | 2 | 1 |
| CCCCC(CC)COC(=O)C=Cc1ccc(OC)cc1 (stereo not drawn) [Example 4, 2-ethylhexyl p-methoxycinnamate] | 10 | 2 | 1 |
| CCCCC(CC)COC(=O)C=Cc1ccc(OC)cc1 (stereo not drawn) [compound 1, 2-ethylhexyl p-methoxycinnamate] | 40 | 5 | 4 |
| CCCCC(CC)COC(=O)C=Cc1ccc(OC)cc1 (stereo not drawn) [compound 2, 2-ethylhexyl p-methoxycinnamate] | 10 | 5 | 4 |

Second part, the compound after the results:

| Evaluation for ultraviolet absorber: Hue [1] [APHA] | Odor evaluation for ultraviolet absorber after a time has elapsed: In the dark [2] | Odor evaluation for ultraviolet absorber after a time has elapsed: In the light [2] | SMILES |
| --- | --- | --- | --- |
| 40 | 4 | 4 | CCCCC(CC)COC(=O)C=Cc1ccc(OC)cc1 (stereo not drawn) [compound 3, 2-ethylhexyl p-methoxycinnamate] |
| 10 | 4 | 3 | CCCCC(CC)COC(=O)C=Cc1ccc(OC)cc1 (stereo not drawn) [compound 4, 2-ethylhexyl p-methoxycinnamate] |
| 20 | 3 | 3 | CCCCC(CC)COC(=O)C=Cc1ccc(OC)cc1 (stereo not drawn) [compound 5, 2-ethylhexyl p-methoxycinnamate] |
| 20 | 3 | 2 | CCCCC(CC)COC(=O)C=Cc1ccc(OC)cc1 (stereo not drawn) [compound 6, 2-ethylhexyl p-methoxycinnamate] |
| 10 | 3 | 2 | CCCCC(CC)COC(=O)C=Cc1ccc(OC)cc1 (stereo not drawn) [compound 7, 2-ethylhexyl p-methoxycinnamate] |
| 20 | 3 | 2 | CCCCC(CC)COC(=O)C=Cc1ccc(OC)cc1 (stereo not drawn) [compound 8, 2-ethylhexyl p-methoxycinnamate] |
| 10 | 2 | 3 | CCCCC(CC)COC(=O)C=Cc1ccc(OC)cc1 (stereo not drawn) [compound 9, 2-ethylhexyl p-methoxycinnamate] |
